Where a name gives a salt, the structure may show the parent alone.

The nature of data set [1]: anaesthetic activity tests (intravenous administration). Type of data set: in vivo. As to conditions: compound and salts. The source says:
In the tests we have carried out, the compounds of the invention have been shown generally to be good anaesthetics, usually giving instantaneous induction of anaesthesia when administered intravenously. […] The compounds of the invention are of use for inducing anaesthesia which is to be maintained for example by an inhalation anaesthetic, such as ether, halothane, nitrous oxide or trichloroethylene. The compounds may also be capable of maintaining anaesthesia to a sufficient degree to enable surgical operations to be conducted without the aid of an inhalation anaesthetic, the anaesthesia being maintained if necessary by repeated or continuous administration. The compounds may have other desirable central nervous system depressant activities, for example they may be of use as sedatives.

Data set [2] can be described thus: dissolution of the 11β-aminoester salts in aqueous acid (Table 5 and Examples 101, 225-229). Format: physicochemical. As to conditions: for concentration of aqueous solution of the citrate: citric acid monohydrate in water, filtered solution. A digest of the protocol:
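11β-Aminoester free base combined with 1 molar part of acid (citric acid as monohydrate) in water, with extra acid or prior ethanol co-evaporation in some methods. Solution made up to set weight, undissolved base collected and weighed to calculate dissolved amount. Solution pH measured.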

The next data set in a line: pH of the salt solutions. Type of data set: physicochemical. A digest of the protocol:
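Aminoester free base mixed with 1 molar part acid in water, stirred or shaken, with extra acid or ethanol evaporation in some methods, then made up with water to set weight. Undissolved base collected and weighed to calculate dissolved base; solution membrane-filtered and pH measured.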

The mark [3] stands for this setting: aqueous solution of the salt, Table 5.
Setting [4] is: method D: 1 molar part acid, undissolved material weighed, WT. of solution 10 g, except Ex. 136: 8.95, 140: 9.52, 165 and 167: 10.1, 190 and 198: 9.8, 191: 8.9, 194: 6.6, 204: 10.09, 219: 10.6 g.
Where [5] appears, read: method A: clear solution, 1 molar part acid, made up with water to WT. of solution 10 g, except Ex. 121 and 150: 12, 123: 12.3, 124: 7.5, 129: 10.3, 135 and 139: 8.95, 164: 10.35, 170: 10.4, 181: 10.04, 187: 9.5, 210: 10.2, 221: 15 g.
[6] abbreviates: method E: as C with further acid, WT. of solution Ex. 160: 6.12, 161: 7.8, 203: 12.7, 212: 12.125, 220: 10 g.
Setting [7] is: method C: ethanol evaporated, residue in water, undissolved material weighed, WT. of solution Ex. 118: 10, 120: 10.4, 148: 9.54, 152: 5.6, 154: 9.1, 155: 8.77, 156: 9.06, 157: 9.5, 158: 9.38, 159: 9.17, 179: 9.65, 180: 11.7, 182: 4.9, 202: 12.05, 213: 12, 214: 11.5, 215: 11.1, 216: 11.6, 217: 12.1 g.
The mark [8] stands for this setting: solution of the salt in saline, before any adjustment.
[9] abbreviates: aqueous solution of the citrate, filtered, 9.5-10 mg/ml.

With `CC(=O)[C@H]1CC[C@H]2[C@@H]3CC[C@H]4C[C@H](O)CC[C@]4(C)[C@H]3[C@@H](OC(=O)CNCC(C)(C)C)C[C@]12C` [Example 34, 11β-N-2',2'-dimethylpropylaminoacetoxy-3α-hydroxy-5α-pregnan-20-one], the “activity shown in our tests (preference grade)” value (“activity shown in our tests” below) in data set [1] is on record as “particularly preferred on account of the activity shown in our tests”.

In the case of `CCO[C@H]1C[C@@]2(C)[C@@H](CC[C@@H]3[C@@H]2[C@@H](OC(=O)CN(CC)CC)C[C@]2(C)[C@@H](C(C)=O)CC[C@@H]32)C[C@@H]1O` [Example 101, 2β-Ethoxy-11β-diethylaminoacetoxy-3α-hydroxy-5α-pregnan-20-one], the “activity shown in our tests” value in data set [1] (listed as Compound No. 6) is on record as “especially preferred”.

As to `CCCCN(C)CC(=O)O[C@H]1C[C@]2(C)[C@@H](C(C)=O)CC[C@H]2[C@@H]2CC[C@H]3C[C@H](O)CC[C@]3(C)[C@H]21` [Example 111, 11β-(N-Butyl-N-methylaminoacetoxy)-3α-hydroxy-5α-pregnan-20-one], in data set [1] (listed as Compound No. 10), the “activity shown in our tests” value is given as “especially preferred”.

As for `CCCCN(CC)CC(=O)O[C@H]1C[C@]2(C)[C@@H](C(C)=O)CC[C@H]2[C@@H]2CC[C@H]3C[C@H](O)CC[C@]3(C)[C@H]21` [Example 115, 11β-(N-Butyl-N-ethylaminoacetoxy)-3α-hydroxy-5α-pregnan-20-one], the “activity shown in our tests” value in data set [1] (listed as Compound No. 12) was “especially preferred”.

For `CCN(CC)CC(=O)O[C@H]1C[C@]2(C)[C@@H](C(C)=O)CC[C@H]2[C@@H]2CC[C@H]3C[C@H](O)[C@@H](Br)C[C@]3(C)[C@H]21` [Example 208], the Dissolved aminoester in data set [2] (method B: further acid added, undissolved material weighed, WT. of solution 10 g, except Ex. 130 and 141: 9.2, 142: 9.23, 143, 144, 189 and 199: 9.8, 149: 10.6, 153: 7.9, 162 and 188: 9.5, 163: 68, 166: 10.4, 168: 10.7, 169: 10.9, 183: 8.05, 184 and 201: 9.83, 185: 7.1, 186: 9.3, 192: 10.07, 193: 6.4, 195: 6.8, 196: 7, 197: 7.2, 200: 10.1, 206: 15 g) is recorded as 65 mg. In addition, the pH in the data set “pH of the salt solutions” (setting [3]) came out at 2.6.

In the case of `CCCN(CCC)CC(=O)O[C@H]1C[C@]2(C)[C@@H](C(=O)COC(C)=O)CC[C@H]2[C@@H]2CC[C@H]3C[C@H](O)CC[C@]3(C)[C@H]21` [Example 209], the Dissolved aminoester in data set [2] (setting [4]) is 75 mg. The pH in “pH of the salt solutions” (setting [3]) amounted to 3.2.

`CCCN(CCC)CC(=O)O[C@H]1C[C@]2(C)[C@@H](C(=O)CO)CC[C@H]2[C@@H]2CC[C@H]3C[C@H](O)CC[C@]3(C)[C@H]21` [Example 210]: the Dissolved aminoester in data set [2] (setting [5]) was determined as 100 mg. Also, the pH in “pH of the salt solutions” (setting [3]) is 3.7.

With `CCN(CC)CC(=O)O[C@H]1C[C@]2(C)[C@@H](C(C)=O)CC[C@H]2[C@@H]2CC[C@H]3C[C@H](O)C=C[C@]3(C)[C@H]21` [Example 211], the Dissolved aminoester in data set [2] (setting [4]) is listed as 94 mg. Further, the pH in “pH of the salt solutions” (setting [3]) is recorded as 3.2.

As for `CCCN(CCC)CC(=O)O[C@H]1C[C@]2(C)[C@@H](C(C)=O)CC[C@H]2[C@@H]2CC[C@H]3C[C@H](O)CC[C@]3(C)[C@H]21` [Example 212], the Dissolved aminoester in data set [2] (setting [6]) amounted to 73 mg. Further, the pH in the data set “pH of the salt solutions” (setting [3]) is 3.6.

As to `CCCN(CCC)CC(=O)O[C@H]1C[C@]2(C)[C@@H](C(C)=O)CC[C@H]2[C@@H]2CC[C@H]3C[C@H](O)CC[C@]3(C)[C@H]21` [Example 213], the Dissolved aminoester in data set [2] (setting [7]) is on record as 119 mg. In the data set “pH of the salt solutions” (setting [3]), the pH came to 3.8.

Consider `CCCN(CCC)CC(=O)O[C@H]1C[C@]2(C)[C@@H](C(C)=O)CC[C@H]2[C@@H]2CC[C@H]3C[C@H](O)CC[C@]3(C)[C@H]21` [Example 214], for which the Dissolved aminoester in data set [2] (setting [7]) stood at 115 mg. In “pH of the salt solutions” (setting [3]), the pH is 3.52.

With `CCCN(CCC)CC(=O)O[C@H]1C[C@]2(C)[C@@H](C(C)=O)CC[C@H]2[C@@H]2CC[C@H]3C[C@H](O)CC[C@]3(C)[C@H]21` [Example 215], the Dissolved aminoester in data set [2] (setting [7]) came to 111 mg. Besides, in the data set “pH of the salt solutions” (setting [3]), the pH came to 3.63.

Take `CCCN(CCC)CC(=O)O[C@H]1C[C@]2(C)[C@@H](C(C)=O)CC[C@H]2[C@@H]2CC[C@H]3C[C@H](O)CC[C@]3(C)[C@H]21` [Example 216]: in data set [2] (setting [7]), the Dissolved aminoester worked out at 116 mg. Besides, the pH in the data set “pH of the salt solutions” (setting [3]) came out at 3.58.

With `CCCN(CCC)CC(=O)O[C@H]1C[C@]2(C)[C@@H](C(C)=O)CC[C@H]2[C@@H]2CC[C@H]3C[C@H](O)CC[C@]3(C)[C@H]21` [Example 217], in data set [2] (setting [7]), the Dissolved aminoester is on record as 76 mg. In addition, the pH in the data set “pH of the salt solutions” (setting [3]) came out at 3.53.

Turning to `CCCN(CCC)CC(=O)O[C@H]1C[C@]2(C)[C@@H](C(C)=O)CC[C@H]2[C@@H]2CC[C@H]3C[C@H](O)CC[C@]3(C)[C@H]21` [Example 218], the Dissolved aminoester in data set [2] (method C, 0.9% w/v saline in place of water, WT. of solution 95 g) amounted to 951 mg. In the data set “pH of the salt solutions” (setting [8]), the pH stood at 3.38.

With `CCCN(CCC)CC(=O)O[C@H]1C[C@]2(C)[C@@H](C(C)=O)CC[C@H]2[C@@H]2CC[C@H]3C[C@H](O)CC[C@]3(C)[C@H]21` [Example 219], in data set [2] (setting [4]), the Dissolved aminoester is reported as 106 mg. Also, the pH in “pH of the salt solutions” (setting [3]) was 3.77.

As for `CCCCN(CC)CC(=O)O[C@H]1C[C@]2(C)[C@@H](C(C)=O)CC[C@H]2[C@@H]2CC[C@H]3C[C@H](O)CC[C@]3(C)[C@H]21` [Example 220], the Dissolved aminoester in data set [2] (setting [6]) was 100 mg. Besides, the pH in “pH of the salt solutions” (setting [3]) came to 3.6.

Turning to `CCCCN(CC)CC(=O)O[C@H]1C[C@]2(C)[C@@H](C(C)=O)CC[C@H]2[C@@H]2CC[C@H]3C[C@H](O)CC[C@]3(C)[C@H]21` [Example 221], in data set [2] (setting [5]), the Dissolved aminoester is 150 mg. Further, the pH in the data set “pH of the salt solutions” (setting [3]) came out at 3.52.

In the case of `CCCCN(CC)CC(=O)O[C@H]1C[C@]2(C)[C@@H](C(C)=O)CC[C@H]2[C@@H]2CC[C@H]3C[C@H](O)CC[C@]3(C)[C@H]21.O=C(O)CC(O)(CC(=O)O)C(=O)O` [Example 222, 11β-(N-Butyl-N-ethylaminoacetoxy)-3α-hydroxy-5α-pregnan-20-one, citrate salt], the Dissolved aminoester in data set [2] (method A, 0.9% w/v saline in place of water, WT. of solution Ex. 122: 37.5 g, 222: 50 g) came out at 500 mg. Besides, the pH in “pH of the salt solutions” (solution in 0.9% w/v saline, pH adjusted with sodium hydroxide solution, citrate salt) was determined as 3.97; in the data set “pH of the salt solutions” (solution in 0.9% w/v saline, pH adjusted with sodium hydroxide solution, listed as Example 224, citrate salt) it was 4.00; in the data set “pH of the salt solutions” (setting [8]), 3.62.

In the case of `CCO[C@H]1C[C@@]2(C)[C@@H](CC[C@@H]3[C@@H]2[C@@H](OC(=O)CN(CC)CC)C[C@]2(C)[C@@H](C(C)=O)CCC[C@@H]32)C[C@@H]1O` [Example 225 citrate salt], the “concentration of aqueous solution of the citrate” value (“concentration” for short) in data set [2] worked out at 9750 µg/mL. For the same compound, the pH in the data set “pH of the salt solutions” (setting [9]) is recorded as 3.66.

Consider `CCCN(CCC)CC(=O)O[C@H]1C[C@]2(C)[C@@H](C(C)=O)CCC[C@H]2[C@@H]2CC[C@H]3C[C@H](O)[C@@H](OCC)C[C@]3(C)[C@H]21` [Example 226 citrate salt], for which the “concentration” value in data set [2] amounted to 9500 µg/mL. Moreover, the pH in the data set “pH of the salt solutions” (setting [9]) is on record as 2.85.

For the compound `CCCN(CCC)CC(=O)O[C@H]1C[C@]2(C)[C@@H](C(C)=O)CC[C@H]2[C@@H]2CC[C@H]3C[C@H](O)CC[C@@H]3[C@H]21` [Example 227 citrate salt], the “concentration” value in data set [2] is 10000 µg/mL. In “pH of the salt solutions” (setting [9]), the pH was 3.0.

As for `CCCCN(C)CC(=O)O[C@H]1C[C@]2(C)[C@@H](C(C)=O)CC[C@H]2[C@@H]2CC[C@H]3C[C@H](O)CC[C@@H]3[C@H]21` [Example 228 citrate salt], the “concentration” value in data set [2] worked out at 10000 µg/mL. For the same compound, in “pH of the salt solutions” (setting [9]), the pH was 3.77.

Regarding `CC(=O)[C@H]1CC[C@H]2[C@@H]3CC[C@H]4C[C@H](O)CC[C@@H]4[C@H]3[C@@H](OC(=O)CN3CCC(C)CC3)C[C@]12C` [Example 229 citrate salt], the “concentration” value in data set [2] came out at 10000 µg/mL. For the same compound, the pH in “pH of the salt solutions” (setting [9]) turned out to be 3.73.

`CCN(CC(=O)O[C@H]1C[C@]2(C)[C@@H](C(C)=O)CC[C@H]2[C@@H]2CC[C@H]3C[C@H](O)CC[C@]3(C)[C@H]21)C(C)CC(C)C` (stereo partly drawn) [compound 23, 11β-N-1',3'-dimethylbutyl-N-ethylaminoacetoxy-3α-hydroxy-5α-pregnan-20-one]: the “activity shown in our tests” value in data set [1] was “particularly preferred on account of the activity shown in our tests”.

These data come from patent US4192871A, “Chemical compounds” (Glaxo Laboratories Limited, priority 1976, dated 1980).
